This is an account of results in the METLIN SMRT retention time set (Domingo-Almenara et al. 2019).

The series is described as follows: gradient 5% acetonitrile 3 min, to 50% in 2 min, to 85% in 15 min, held 3 min, 100 µL/min. As to conditions: column: Zorbax Extend-C18 2.1 x 50 mm; eluents: water / acetonitrile, 0.1% formic acid. The gist of the method: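 Over 3 months, pure standards in mixtures of ~100 molecules were run by HPLC coupled to a quadrupole time-of-flight mass spectrometer in positive and negative ionization mode. The column was a Zorbax Extend-C18 (2.1 × 50 mm, 1.8 μm) at 100 μL/min, eluted with water and acetonitrile each holding 0.1% formic acid, with 40 μL dead and 900 μL dwell volumes. Retention time was determined from adduct peaks chosen by software and checked manually.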
Consider `O=C(Cn1c(=O)oc2ccccc21)NCC12CCCC=C1NC(=O)CC2` (stereo unspecified), for which the RP-LC retention time stood at 678 s.
In the case of `Cc1cccc(-c2nc(-c3ccc4c(c3)nc(C)c(=O)n4C)no2)c1` it was 1120 s; in that of `COC(=O)C1CCN(S(=O)(=O)CCCOc2cccc3c2OC(C)(C)C3)CC1`, 936 s; in that of `Cc1nnc(-n2cccc2)s1`, 733 s.
Turning to `COc1ccc(C2CC(=O)c3cnc4c(c3C2)c(=O)n(C)c(=O)n4C)cc1` (stereo unspecified), the RP-LC retention time came out at 913 s.
In the case of `Oc1cccc2ccc(N3CCOCC3)nc12` it was 547 s.
In the case of `CC1CCN(S(=O)(=O)c2nn(C)cc2C(=O)NCc2ccc3c(c2)OCO3)CC1` it was 832 s; in that of `Cc1ccc(C)c(CNC(=O)C2CC(=O)N(c3ccc4oc(C)nc4c3)C2)c1` (stereo unspecified), 753 s; in that of `Cc1ccc(NC(=O)Nc2ccc3c(c2)CCN3S(=O)(=O)c2ccccc2)cc1F`, 1020 s.
In the case of `CCCN1CCN(C(=O)C(C)C2CCN(C(=O)c3[nH]c(C)c(C(=O)OCC)c3C)CC2)CC1` (stereo unspecified) it was 620 s; in that of `CN1c2cc(C(=O)NCc3ccc(F)cc3F)ccc2C(=O)N2CCCCC21` (stereo unspecified), 813 s.
In the case of `CN1CCN(C(=O)C2CCN(c3nc4ccc(-c5cccs5)nc4s3)CC2)CC1`, the RP-LC retention time came to 646 s.
In the case of `O=C(NCc1ccccc1)N1CCN(Cc2nc3ccc(Cl)cc3o2)CC1` it was 723 s.
The molecule `Cc1ccc(NC(=O)N2CCC(CCN)CC2)cc1` came in with an RP-LC retention time of 589 s.
In the case of `Cc1c(Cl)cccc1S(=O)(=O)N1CCC(CN2CCCCCC2)CC1` it was 733 s; in that of `O=C(c1ccc(Br)o1)N1c2ccccc2CC1c1nnc(C2CCOCC2)o1` (stereo unspecified), 804 s.
In the case of `CC(C)(C)c1noc(-c2ccc(-n3cnc(C(=O)NCc4ccccc4F)c3)nc2)n1` it was 1050 s.
In the case of `CCCn1cnc2cc(-c3noc(COc4cccc(C)c4)n3)ccc21` it was 840 s.
`O=C(C1CCN(c2nc3ccc(-c4ccsc4)nc3s2)CC1)N1CCCC1` yielded an RP-LC retention time of 893 s.
In the case of `CC(C)CNC(=O)C1CCN(C(=O)c2ncn3c2COC(c2ccc(F)cc2)C3)CC1` (stereo unspecified) it was 711 s; in that of `Cc1cc(-c2nnc(-c3ccco3)o2)c(C)n1CC(=O)NCc1cccc(Cl)c1`, 886 s.
In the case of `CCc1nnc(-c2ccc3ccn(CC(=O)Nc4ccc(C(=O)OC)cc4)c3c2)o1` it was 811 s.
In the case of `COc1cc(OC)cc(C2(C#N)CCN(C)CC2)c1`, the RP-LC retention time is 665 s.
In the case of `CCN1CCn2cc(S(=O)(=O)Nc3ccc(Cl)cc3)cc2C1=O` it was 766 s; in that of `Cn1nccc1-c1cccc(-c2noc(-c3ccc(Br)o3)n2)c1`, 1090 s; in that of `O=C(CSc1nnc2ccccn12)Nc1nc(-c2ccccc2)ns1`, 695 s.
`Cn1cc(C2=CCN(S(=O)(=O)c3cccc4nsnc34)CC2)c2cccnc21` gave an RP-LC retention time of 893 s.
In the case of `CCCC(=O)N1CCC(c2nc(CCOCC3CC3)no2)C1` (stereo unspecified) it was 729 s; in that of `O=S(=O)(c1ccccc1)N1CCC(CCOc2ccccc2)C1` (stereo unspecified), 754 s.
Regarding `CCN(CC)CCNC(=O)CCc1cc2ccc(C)cc2[nH]c1=O`, the RP-LC retention time was found to be 591 s.
Turning to `O=C(NCCCN1CCCc2ccccc21)c1nnc(-c2ccc(S(=O)(=O)N3CCCC3)cc2)o1`, the RP-LC retention time is 1020 s.
In the case of `CC(C)c1ccc(NC(=O)C2CCN(S(=O)(=O)c3ccc4[nH]c(=O)sc4c3)CC2)cc1` it was 913 s; in that of `COc1ccc(OC)c(S(=O)(=O)Nc2cccn3c(C4CCC4)nnc23)c1`, 772 s; in that of `COc1ccc(N2CC(c3noc(-c4ccc(OC(F)(F)F)cc4)n3)CC2=O)cc1` (stereo unspecified), 1070 s.
Molecule `COc1ccc(CNC(=O)NCCOc2cc(C)cc(C)c2)cc1OC` registered an RP-LC retention time of 782 s.
In the case of `CCn1c(=O)c(N2CCN(C(=O)Nc3ccc(Br)cc3F)CC2)nc2ccccc21` it was 1030 s; in that of `Cc1cccc(C)c1-n1ccn(Cc2nc(-c3ccc(F)cc3)no2)c(=O)c1=O`, 884 s; in that of `COc1ccc(NC(=O)c2cnc(N3CCN(C(C)=O)CC3)nc2N)cc1`, 601 s.
In the case of `O=C(Nc1ccc2c(c1)OCCO2)N1CCC2(CC1)CC(OCc1ccccc1)CCO2` (stereo unspecified) it was 914 s; in that of `Cc1ccc2c(=O)c3c([nH]c2c1C)CCN(CC(=O)Nc1cccc(Cl)c1)C3`, 640 s.
The molecule `O=C(c1ccc(Cn2cncn2)cc1)N1CCN(c2ccc(Cl)cc2)CC1` showed an RP-LC retention time of 774 s.
For the molecule `CCC(=O)N1CCc2ccccc2C1C(=O)NCc1ccc(Br)cc1` (stereo unspecified), the RP-LC retention time was found to be 887 s.
In the case of `CCN1C(=O)COc2ccc(-c3noc(C(C)Oc4ccccc4)n3)cc21` (stereo unspecified) it was 1090 s.
Consider `Cc1cccc(Cn2ccnc2C(N)=O)c1`, for which the RP-LC retention time came out at 801 s.
Regarding `O=C(CN1C(=O)C2CCCCN2c2ccc(S(=O)(=O)N3CCCC3)cc21)NCC1CCCO1` (stereo unspecified), the RP-LC retention time is 771 s.
`Cc1nnc(C2CCCCCN2C(=O)Cc2c(C)noc2C)o1` (stereo unspecified) displayed an RP-LC retention time of 658 s.
In the case of `Cc1nnc(N2CCCC(C(=O)NCc3ccc(OC(C)C)cc3)C2)c2nn(-c3ccccc3)c(C)c12` (stereo unspecified) it was 764 s; in that of `COc1cccc(OCC2c3ccsc3CCN2C(=O)CN(C(C)=O)C(C)C)c1` (stereo unspecified), 808 s.
In the case of `CCNc1nccc(N2CCC(CC(=O)NCC(C)C)CC2)n1` it was 563 s; in that of `COCCN1C(=O)c2ccccc2C(C(=O)NCCCN2CC(C)CC(C)C2)C1c1cccs1` (stereo unspecified), 670 s; in that of `COc1ccc2c(c1)C1(CCN(C(=O)c3ccc(C)c(F)c3)C1)C(=O)N2` (stereo unspecified), 745 s.
With `COc1ccccc1OCc1nn2c(-c3ccccn3)nnc2s1`, the RP-LC retention time was 740 s.
`Cc1ccc(C(=O)N2CCC(n3c(=O)n(C)c4cncnc43)CC2)s1` gave an RP-LC retention time of 659 s.
In the case of `Brc1cccc(-c2noc(-c3nc(-c4ccncc4)no3)n2)c1` it was 1150 s; in that of `CCc1ccc(NC(=O)c2cc(CC)n3nccc3n2)cc1`, 1140 s; in that of `CC1Oc2ccc(-c3csc(NC(=O)c4cccs4)n3)cc2NC1=O` (stereo unspecified), 839 s.
With `Cc1ccc(NC(=O)c2ccccc2C(=O)O)cc1Br`, the RP-LC retention time came out at 768 s.
Molecule `CS(=O)(=O)N(Cc1cccnc1)C1CN(C(=O)c2ccc3ccccc3n2)C1` displayed an RP-LC retention time of 615 s.
In turn, `Cc1ccc(F)cc1S(=O)(=O)N1CCn2c(nn(CC3CC3)c2=O)C1` gave an RP-LC retention time of 797 s.
`CCn1c(=O)c2c(cc(C)n2C)n(CC(=O)Nc2cc(OC)cc(OC)c2)c1=O` showed an RP-LC retention time of 779 s.
In the case of `Cc1ccc(NC(=O)Cc2cccc3ccccc23)cc1N1CCCC1=O` it was 753 s; in that of `CCS(=O)(=O)NCc1ccc2c(c1)CCN2C(=O)CC(C)C`, 794 s; in that of `O=C1CCN(C(=O)C2CCN(C(=O)CCC3CCCC3)CC2)CCCCCCN1`, 725 s.
Molecule `CC(=O)Nc1onc(C)c1-c1ccc(C)c(S(=O)(=O)Nc2ccc(F)cc2C)c1` returned an RP-LC retention time of 806 s.
Take `O=C1c2oc3ccccc3c(=O)c2C(c2cccnc2)N1c1nccs1` (stereo unspecified): the RP-LC retention time was found to be 708 s.
As to `COc1ccc2ncc(S(=O)(=O)c3ccc(C)c(C)c3)c(N3CCN(C)CC3)c2c1`, the RP-LC retention time was 654 s.
In the case of `O=C(NCCn1cnc2cc(C(=O)N3CCCC3)ccc21)NCc1ccco1` it was 985 s.
In the case of `CCNc1cc(N2CCC(CCC(=O)NCc3ccc(OC)cc3)CC2)ncn1` it was 568 s; in that of `O=C(c1ccccc1C(F)(F)F)N1CCN=C1SCc1cccnc1`, 590 s.
Take `COc1ccc(OC)c(NC(=O)N2CCC3(CC2)N=C(c2ccc(F)cc2)C(=O)N3)c1`: the RP-LC retention time is 838 s.
Turning to `CCc1noc([C@@H]2CC(F)(F)CN2C(=O)c2cnc[nH]2)n1`, the RP-LC retention time stood at 604 s.
In turn, `Cc1cc(C)c(S(=O)(=O)Nc2cccc(-c3cn4ccccc4n3)c2)c(C)c1` gave an RP-LC retention time of 667 s.
Turning to `CCOc1nc2ccccc2nc1N1CCCC(C(=O)NCc2ccco2)C1` (stereo unspecified), the RP-LC retention time came out at 1020 s.
In the case of `Cc1cc(NS(=O)(=O)c2cc3n(c2)CCN(C(C)C)C3=O)ccc1F` it was 1320 s; in that of `Cc1ccc(Nc2nc(C)cc(N3CCN(S(=O)(=O)c4cc(F)ccc4C)CC3)n2)cc1`, 823 s; in that of `COCc1cc(=O)n(CC(=O)Nc2cc(F)ccc2C)c(N)n1`, 627 s.
Regarding `CCCNc1cc(N2CCC(CCC(=O)Nc3ccc(OC)cc3)CC2)ncn1`, the RP-LC retention time amounted to 682 s.
In the case of `CO[C@H]1C(=O)N(C(C)C)[C@H]1C1CCN(C(=O)CN2C(=O)CCC2=O)CC1` it was 607 s; in that of `CCOC(=O)N1CCN(C(=O)CCNc2c(-c3cccc(F)c3)nc3cnccn23)CC1`, 689 s.
In the case of `COc1ccc(-n2c(=O)c(C(=O)NCC3CC3)c(O)c3cccnc32)cc1` it was 1110 s.
In the case of `NS(=O)(=O)c1cccnc1Nc1cccc(C(F)(F)F)c1` it was 932 s.
